Earlier results as cited in patent US11311529B2, “Topical formulations of 5-α-reductase inhibitors and uses thereof” (Varsona Therapeutics, Inc., priority 2018, dated 2022).

How the values were obtained:
[1] = test system: DHT; conditions: 5 mg daily dose, oral, people suffering from BPH
[2] = test system: men; conditions: oral, over a period of 12 to 24 weeks, compared with oral finasteride

| Structure (SMILES) | DHT blocked [1] | hair count results [2] |
| --- | --- | --- |
| C[C@]12C=CC(=O)N[C@@H]1CC[C@@H]1[C@@H]2CC[C@]2(C)[C@@H](C(=O)Nc3cc(C(F)(F)F)ccc3C(F)(F)F)CC[C@@H]12 [oral dutasteride, (5α,17β)-N-[2,5 bis(trifluoromethyl)phenyl]-3-oxo-4-azaandrost-1-ene-17-carboxamide] | 98.4%+/−1.2 | better hair count results than oral finasteride |
| CC(C)(C)NC(=O)[C@H]1CC[C@H]2[C@@H]3CC[C@H]4NC(=O)C=C[C@]4(C)[C@H]3CC[C@]12C [oral finasteride, finasteride] | 70.8+/−18.3% |  |
